Assay results taken from patent US20260159512A1, “BCAT2 INHIBITORS” (AGIOS PHARMACEUTICALS, INC., priority 2021, published 2026).
pIC50: −log10 of the molar value.

How the values were obtained:
Conditions in all cases: average where tested multiple times
[1] = target: T1, BCAT2 (Homo sapiens, UniProt O15382); assay: BCAT2 in vitro cell inhibition using engineered A549 cells (KMV cell assay, 13C6-KMV by LC-MS/MS); format: cell-based; set-up: The result was an engineered A549 cell line that expressed endogenous BCAT2; endogenous in cells; host or cells: A549 cells with MUT and BCAT1 knocked out by CRISPR/CAS9; key to BCAT2 Cell Inhibition: A: less than or equal to 0.100 μM; B: greater than 0.100 and less than or equal to 0.500 μM; C: greater than 0.500 and less than or equal to 1.000 μM; d: greater than 1.000 μM; E: no fit
T1 sequence (O15382 28-392): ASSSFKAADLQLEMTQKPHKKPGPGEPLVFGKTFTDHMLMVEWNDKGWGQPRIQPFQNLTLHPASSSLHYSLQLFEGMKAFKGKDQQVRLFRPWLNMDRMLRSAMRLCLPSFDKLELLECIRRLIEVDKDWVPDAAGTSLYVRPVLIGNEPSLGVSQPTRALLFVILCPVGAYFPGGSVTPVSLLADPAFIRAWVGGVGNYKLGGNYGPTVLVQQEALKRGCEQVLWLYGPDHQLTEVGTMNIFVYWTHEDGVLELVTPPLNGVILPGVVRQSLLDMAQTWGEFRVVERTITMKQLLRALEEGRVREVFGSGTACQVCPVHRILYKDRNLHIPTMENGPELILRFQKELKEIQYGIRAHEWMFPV

[2] = target: T2, hBCAT1 (Homo sapiens, UniProt P54687); assay: BCAT1 in vitro enzyme inhibition assay (resazurin/diaphorase-coupled fluorescence); format: biochemical
T2 sequence (P54687 1-386): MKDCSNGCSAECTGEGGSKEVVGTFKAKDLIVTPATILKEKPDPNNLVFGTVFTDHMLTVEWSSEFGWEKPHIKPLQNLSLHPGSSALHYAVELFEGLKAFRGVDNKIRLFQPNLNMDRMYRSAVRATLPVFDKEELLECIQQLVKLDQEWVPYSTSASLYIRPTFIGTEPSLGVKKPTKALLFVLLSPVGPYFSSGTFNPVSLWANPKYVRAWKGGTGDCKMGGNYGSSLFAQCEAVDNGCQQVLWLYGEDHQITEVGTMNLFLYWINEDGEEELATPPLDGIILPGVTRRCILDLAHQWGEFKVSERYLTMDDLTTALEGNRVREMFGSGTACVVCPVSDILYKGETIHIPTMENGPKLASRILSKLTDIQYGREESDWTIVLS
Outline: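 Human BCAT1 activity read by resazurin/diaphorase-coupled fluorescence. Compounds added from 50× DMSO stocks at 1:50, giving 10-point 3-fold titrations from 100 μM top final concentration. Run in technical duplicate; repeat tests averaged.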

[3] = target: T1, BCAT2; assay: BCAT2 in vitro enzyme inhibition assay (resazurin/diaphorase-coupled fluorescence); format: biochemical
Outline: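 Coupled fluorescence readout: glutamate formed from L-leucine/α-ketoglutarate transamination drives GDH/NAD/diaphorase reduction of resazurin (Ex 540/Em 590). Human BCAT2 was first exposed 1 h at room temperature to compound, top final 100 μM in 3-fold, 10-point series; substrate reaction ran 1 h before SDS quench, in technical duplicate with DMSO max and enzyme-free min controls.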

| Compound | pIC50 [1] | pIC50 [2] | pIC50 [3] | BCAT2 Cell Inhibition [1] |
| --- | --- | --- | --- | --- |
| O=C(N[C@H]1CCC[C@@H](n2c(-c3ccccc3F)nc3cnc(-c4nc[nH]n4)cc32)C1)c1ncc(Cl)s1 [Example 83, 5-chloro-N-((1S,3R)-3-(2-(2-fluorophenyl)-6-(1H-1,2,4-triazol-3-yl)-1H-imidazo[4,5-c]pyridin-1-yl)cyclohexyl)thiazole-2-carboxamide] | ≥ 7.00 | > 6.30 | ≥ 7.00 |  |
| O=C(O)Cc1ccccc1-c1nc2cnc(-n3nccn3)cc2n1[C@@H]1CCC[C@H](NC(=O)c2ncc(C(F)F)s2)C1 [Example 96, 2-(2-(1-((1R,3S)-3-(5-(difluoromethyl)thiazole-2-carboxamido)cyclohexyl)-6-(2H-1,2,3-triazol-2-yl)-1H-imidazo[4,5-c]pyridin-2-yl)phenyl)acetic acid] |  | 5.30 to 6.00 | 6.30 to 7.00 | E |
| CC(Oc1nc2cnc(-n3nccn3)cc2n1[C@@H]1CCC[C@H](NC(=O)c2ncc(C(F)F)s2)C1)C(F)(F)F (stereo partly drawn) [Example 98, N-((1S,3R)-3-(6-(2H-1,2,3-triazol-2-yl)-2-((1,1,1-trifluoropropan-2-yl)oxy)-1H-imidazo[4,5-c]pyridin-1-yl)cyclohexyl)-5-(difluoromethyl)thiazole-2-carboxamide] | < 6.00 | < 5.30 | 6.30 to 7.00 |  |
| O=C(N[C@H]1CCC[C@@H](n2c(OCC(F)(F)F)nc3cnc(-n4nccn4)cc32)C1)c1ncc(Cl)s1 [Example 101, N-((1S,3R)-3-(6-(2H-1,2,3-triazol-2-yl)-2-(2,2,2-trifluoroethoxy)-1H-imidazo[4,5-c]pyridin-1-yl)cyclohexyl)-5-chlorothiazole-2-carboxamide] | < 6.00 | < 5.30 | 6.30 to 7.00 |  |
| O=C(N[C@H]1CCC[C@@H](n2c(-c3ccccc3F)nc3cnc(-c4ccccn4)cc32)C1)c1ncc(Cl)s1 [Example 104, 5-chloro-N-((1S,3R)-3-(2-(2-fluorophenyl)-6-(pyridin-2-yl)-1H-imidazo[4,5-c]pyridin-1-yl)cyclohexyl)thiazole-2-carboxamide] | ≥ 7.00 | > 6.30 | ≥ 7.00 |  |
| O=C(NC1CC(O)CC(n2c(-c3ccccc3F)nc3cnc(-n4nccn4)cc32)C1)c1ncc(Cl)s1 (stereo not drawn) [Example 109, 5-chloro-N-(3-(2-(2-fluorophenyl)-6-(2H-1,2,3-triazol-2-yl)-1H-imidazo[4,5-c]pyridin-1-yl)-5-hydroxycyclohexyl)thiazole-2-carboxamide] | ≥ 7.00 | > 6.30 | ≥ 7.00 |  |
| CN1CC(NC(=O)c2ccc(Br)s2)CC(n2c(-c3ccccc3F)nc3cnc(-c4ncco4)cc32)C1 (stereo not drawn) [Example 117, 5-bromo-N-(5-(2-(2-fluorophenyl)-6-(oxazol-2-yl)-1H-imidazo[4,5-c]pyridin-1-yl)-1-methylpiperidin-3-yl)thiophene-2-carboxamide] | ≥ 7.00 | 6.00 to 6.30 | ≥ 7.00 |  |
| CC(=O)N1CC(NC(=O)c2ccc(Br)s2)CC(n2c(-c3ccccc3F)nc3cnc(-c4ncco4)cc32)C1 (stereo not drawn) [Example 118, N-(1-acetyl-5-(2-(2-fluorophenyl)-6-(oxazol-2-yl)-1H-imidazo[4,5-c]pyridin-1-yl)piperidin-3-yl)-5-bromothiophene-2-carboxamide] | ≥ 7.00 | > 6.30 | ≥ 7.00 |  |
| CC(=O)N1CC(NC(=O)c2ncc(C(F)F)s2)CC(n2c(-c3ncccc3F)nc3cnc(-n4nccn4)cc32)C1 (stereo not drawn) [Example 119, N-(1-acetyl-5-(2-(3-fluoropyridin-2-yl)-6-(2H-1,2,3-triazol-2-yl)-1H-imidazo[4,5-c]pyridin-1-yl)piperidin-3-yl)-5-(difluoromethyl)thiazole-2-carboxamide] | 6.30 to 7.00 | > 6.30 | ≥ 7.00 |  |

Second part, the compound after the results:

| pIC50 [1] | pIC50 [2] | pIC50 [3] | BCAT2 Cell Inhibition [1] | Compound |
| --- | --- | --- | --- | --- |
| ≥ 7.00 | > 6.30 | ≥ 7.00 |  | CC(C)Cc1nc2cnc(-n3nccn3)cc2n1[C@@H]1CCC[C@H](NC(=O)c2ncc(Cl)s2)C1 [Example 84, 5-chloro-N-((1S,3R)-3-(2-isobutyl-6-(2H-1,2,3-triazol-2-yl)-1H-imidazo[4,5-c]pyridin-1-yl)cyclohexyl)thiazole-2-carboxamide] |
| ≥ 7.00 | > 6.30 | ≥ 7.00 |  | O=C(N[C@H]1CCC[C@@H](n2c(-c3ccccc3F)nc3cnc(-c4nc[nH]n4)cc32)C1)c1ncc(C(F)(F)F)s1 [Example 85, N-((1S,3R)-3-(2-(2-fluorophenyl)-6-(1H-1,2,4-triazol-3-yl)-1H-imidazo[4,5-c]pyridin-1-yl)cyclohexyl)-5-(trifluoromethyl)thiazole-2-carboxamide] |
| ≥ 7.00 | > 6.30 | ≥ 7.00 |  | CC(C)Cc1nc2cnc(-c3nc[nH]n3)cc2n1[C@@H]1CCC[C@H](NC(=O)c2ncc(Cl)s2)C1 [Example 86, 5-chloro-N-((1S,3R)-3-(2-isobutyl-6-(1H-1,2,4-triazol-3-yl)-1H-imidazo[4,5-c]pyridin-1-yl)cyclohexyl)thiazole-2-carboxamide] |
| < 6.00 | 5.30 to 6.00 | 6.30 to 7.00 |  | COCc1nc2cnc(-c3nc[nH]n3)cc2n1[C@@H]1CCC[C@H](NC(=O)c2ncc(Cl)s2)C1 [Example 91, 5-chloro-N-[(1S,3R)-3-[2-(methoxymethyl)-6-(1H-1,2,4-triazol-3-yl)imidazo[4,5-c]pyridin-1-yl]cyclohexyl]thiazole-2-carboxamide] |
|  | 5.30 to 6.00 | ≥ 7.00 | E | O=C(N[C@H]1CCC[C@@H](n2c(-c3ccccc3C(=O)O)nc3cnc(-n4nccn4)cc32)C1)c1ncc(C(F)F)s1 [Example 99, 2-(1-((1R,3S)-3-(5-(difluoromethyl)thiazole-2-carboxamido)cyclohexyl)-6-(2H-1,2,3-triazol-2-yl)-1H-imidazo[4,5-c]pyridin-2-yl)benzoic acid] |
| ≥ 7.00 | > 6.30 | ≥ 7.00 |  | Nc1cccc(-c2cc3c(cn2)nc(-c2ccccc2F)n3[C@@H]2CCC[C@H](NC(=O)c3ncc(Cl)s3)C2)n1 [Example 105, N-((1S,3R)-3-(6-(6-aminopyridin-2-yl)-2-(2-fluorophenyl)-1H-imidazo[4,5-c]pyridin-1-yl)cyclohexyl)-5-chlorothiazole-2-carboxamide] |
| ≥ 7.00 | > 6.30 | ≥ 7.00 |  | O=C(NC1CC(O)CC(n2c(-c3ccccc3F)nc3cnc(-n4nccn4)cc32)C1)c1ncc(C(F)F)s1 (stereo not drawn) [Example 106, 5-(difluoromethyl)-N-(3-(2-(2-fluorophenyl)-6-(2H-1,2,3-triazol-2-yl)-1H-imidazo[4,5-c]pyridin-1-yl)-5-hydroxycyclohexyl)thiazole-2-carboxamide] |
| ≥ 7.00 | > 6.30 | ≥ 7.00 |  | O=C(NC1CCCC(n2c(-c3ccccc3F)nc3cnc(-n4nccn4)cc32)C1O)c1ncc(Cl)s1 (stereo not drawn) [Example 112, 5-chloro-N-(3-(2-(2-fluorophenyl)-6-(2H-1,2,3-triazol-2-yl)-1H-imidazo[4,5-c]pyridin-1-yl)-2-hydroxycyclohexyl)thiazole-2-carboxamide] |
| ≥ 7.00 | > 6.30 | ≥ 7.00 |  | O=C(NC1CC(O)CC(n2c(-c3ccccc3F)nc3cnc(-c4nnc[nH]4)cc32)C1)c1ncc(Cl)s1 (stereo not drawn) [Example 115, 5-chloro-N-(3-(2-(2-fluorophenyl)-6-(4H-1,2,4-triazol-3-yl)-1H-imidazo[4,5-c]pyridin-1-yl)-5-hydroxycyclohexyl)thiazole-2-carboxamide] |
| ≥ 7.00 | > 6.30 | ≥ 7.00 |  | C#Cc1ccc(C(=O)NC2CC(n3c(-c4ccccc4F)nc4cnc(-c5ncco5)cc43)CN(C)C2)s1 (stereo not drawn) [Example 116, 5-ethynyl-N-(5-(2-(2-fluorophenyl)-6-(oxazol-2-yl)-1H-imidazo[4,5-c]pyridin-1-yl)-1-methylpiperidin-3-yl)thiophene-2-carboxamide] |
